This assay has as its system L1210 leukemia ip in BDF1 mice, survival T/C. Description: NCI In Vivo Anticancer Drug Screen. Data for tumor model L1210 Leukemia (intraperitoneal) in B6D2F1 (BDF1) mice. To be noted: endpoint: mean survival time, higher = longer survival. In a few lines:
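Mice bearing the transplanted tumor received compound or vehicle. Survival of the treated group was divided by that of the vehicle-treated control group to give the ratio.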

The mark [1] stands for this setting: dose: 50.0 mg/kg/injection, schedule: Q01DX001 (ip), vehicle: saline.
The mark [2] stands for this setting: dose: 100.0 mg/kg/injection, schedule: Q01DX001 (ip), vehicle: saline.
Setting [3] is: dose: 200.0 mg/kg/injection, schedule: Q01DX001 (ip), vehicle: saline.
Where [4] appears, read: dose: 400.0 mg/kg/injection, schedule: Q01DX001 (ip), vehicle: saline.
Where [5] appears, read: dose: 100.0 mg/kg/injection, schedule: Q01DX001 (ip), vehicle: Klucel (hydroxypropylcellulose) (HPC).
Setting [6] is: dose: 200.0 mg/kg/injection, schedule: Q01DX001 (ip), vehicle: Klucel (hydroxypropylcellulose) (HPC).
The mark [7] stands for this setting: dose: 400.0 mg/kg/injection, schedule: Q01DX001 (ip), vehicle: Klucel (hydroxypropylcellulose) (HPC).
Setting [8] is: dose: 25.0 mg/kg/injection, schedule: Q01DX009 (ip), vehicle: Klucel (hydroxypropylcellulose) (HPC).
[9] abbreviates: dose: 25.0 mg/kg/injection, schedule: Q04DX003 (ip), vehicle: Klucel (hydroxypropylcellulose) (HPC).
[10] abbreviates: dose: 50.0 mg/kg/injection, schedule: Q01DX009 (ip), vehicle: Klucel (hydroxypropylcellulose) (HPC).
[11] abbreviates: dose: 100.0 mg/kg/injection, schedule: Q01DX009 (ip), vehicle: Klucel (hydroxypropylcellulose) (HPC).
The mark [12] stands for this setting: dose: 100.0 mg/kg/injection, schedule: Q04DX003 (ip), vehicle: Klucel (hydroxypropylcellulose) (HPC).

Several values for one entry are separate records, joined by “and”; a condition that tells them apart may be missing. Identical values can stand only once. Toxic doses and inconclusive results are not listed.

With `C=C1CCC2CCCN2C1=O` (centres undefined), the T/C is, setting by setting: (dose: 25.0 mg/kg/injection, schedule: Q01DX001 (ip), vehicle: saline) 94 % of control; under setting [1], 97 % of control; under setting [2], 108 % of control; under setting [3], 87 % of control.
Consider `CC1CCOC(=O)CCCCC1=O` (centres undefined), for which the T/C under setting [2] is 101 % of control, the T/C under setting [3] was 90 % of control and the T/C under setting [4] is 109 % of control.
As for `CC(=O)OC1CCC2(C)C(=CCC3C2CCC2(C)C(C(C)C(N)=O)CCC32)C1` (centres undefined), the T/C is 90 % of control and 91 % of control under setting [5]; 94 % of control and 91 % of control under setting [6]; 87 % of control and 100 % of control under setting [7].
On to `Cc1ccccc1N=C(N)N=C(N)N`, for which the T/C is 93 % of control under setting [8]; 95 % of control under setting [9]; 90 % of control under setting [10]; 103 % of control (dose: 50.0 mg/kg/injection, schedule: Q04DX003 (ip), vehicle: Klucel (hydroxypropylcellulose) (HPC)); 98 % of control and 92 % of control under setting [11]; 100 % of control and 90 % of control under setting [12].
`COc1cc2c(c(OC)c1OC)-c1ccc(O)c(=O)cc1[C@@H](NC(C)=O)CC2`: the T/C (dose: 75.0 mg/kg/injection, schedule: Q01DX001 (ip), vehicle: other) is 90 % of control and the T/C (dose: 150.0 mg/kg/injection, schedule: Q01DX001 (ip), vehicle: other) was 119 % of control.
Regarding `O=C(O)CCC(=O)c1ccc2sc3ccccc3c2c1`, the T/C was 106 % of control under setting [8]; 100 % of control under setting [10]; 97 % of control and 106 % of control under setting [11]; 98 % of control under setting [12]; 103 % of control (dose: 200.0 mg/kg/injection, schedule: Q04DX003 (ip), vehicle: Klucel (hydroxypropylcellulose) (HPC)); 89 % of control (dose: 400.0 mg/kg/injection, schedule: Q04DX003 (ip), vehicle: Klucel (hydroxypropylcellulose) (HPC)).
Regarding `Clc1ccc(-c2nnc3c4ccccc4ccn23)cc1`, the T/C is, setting by setting: under setting [2], 104 % of control; under setting [3], 93 % of control; under setting [4], 98 % of control.
For `CCCCCCCCCCCCCCCCCC(=O)Nc1ccc(O)cc1`, the T/C (dose: 100.0 mg/kg/injection, schedule: Q01DX009 (ip), vehicle: gum acacia) was 87 % of control; the T/C (dose: 100.0 mg/kg/injection, schedule: Q04DX003 (ip), vehicle: gum acacia) is 88 % of control; the T/C (dose: 200.0 mg/kg/injection, schedule: Q01DX009 (ip), vehicle: gum acacia) was 90 % of control; the T/C (dose: 200.0 mg/kg/injection, schedule: Q04DX003 (ip), vehicle: gum acacia) was 88 % of control; the T/C (dose: 400.0 mg/kg/injection, schedule: Q01DX009 (ip), vehicle: gum acacia) is 90 % of control; the T/C (dose: 400.0 mg/kg/injection, schedule: Q04DX003 (ip), vehicle: gum acacia) was 90 % of control.
Take `O=C(CSc1ccc([N+](=O)[O-])cc1)c1ccccc1`: the T/C is, setting by setting: under setting [1], 104 % of control; under setting [2], 98 % of control; under setting [3], 91 % of control; under setting [4], 96 % of control.
Consider `CCCCCCCCCCCCCCCCCC(=O)C(C)(C)C`, for which the T/C is, setting by setting: (dose: 25.0 mg/kg/injection, schedule: Q01DX001 (ip), vehicle: Klucel (hydroxypropylcellulose) (HPC)) 92 % of control; (dose: 50.0 mg/kg/injection, schedule: Q01DX001 (ip), vehicle: Klucel (hydroxypropylcellulose) (HPC)) 98 % of control; under setting [5], 98 % of control; under setting [6], 98 % of control; under setting [7], 95 % of control.
In the case of `CN(C)CCN1C(=O)NC(C)(C)C1=O`, the T/C was 96 % of control (dose: 50.0 mg/kg/injection, schedule: Q04DX003 (ip), vehicle: saline); 101 % of control (dose: 100.0 mg/kg/injection, schedule: Q04DX003 (ip), vehicle: saline); 90 % of control (dose: 200.0 mg/kg/injection, schedule: Q04DX003 (ip), vehicle: saline); 93 % of control (dose: 400.0 mg/kg/injection, schedule: Q04DX003 (ip), vehicle: saline).
Consider `CCCC(NC(=O)OCC)NC(=O)OCC`, for which the T/C is, setting by setting: (dose: 50.0 mg/kg/injection, schedule: Q01DX001 (ip), vehicle: carboxymethylcellulose (CMC)) 95 % of control; (dose: 100.0 mg/kg/injection, schedule: Q01DX001 (ip), vehicle: carboxymethylcellulose (CMC)) 92 % of control; (dose: 200.0 mg/kg/injection, schedule: Q01DX001 (ip), vehicle: carboxymethylcellulose (CMC)) 90 % of control; (dose: 400.0 mg/kg/injection, schedule: Q01DX001 (ip), vehicle: carboxymethylcellulose (CMC)) 92 % of control.
Regarding `CCCN(CC#N)CCC`, the T/C (dose: 3.0 mg/kg/injection, schedule: Q01DX009 (ip), vehicle: Klucel (hydroxypropylcellulose) (HPC)) was 97 % of control; the T/C (dose: 6.0 mg/kg/injection, schedule: Q01DX009 (ip), vehicle: Klucel (hydroxypropylcellulose) (HPC)) was 97 % of control; the T/C (dose: 6.0 mg/kg/injection, schedule: Q04DX003 (ip), vehicle: Klucel (hydroxypropylcellulose) (HPC)) is 98 % of control; the T/C (dose: 12.0 mg/kg/injection, schedule: Q01DX009 (ip), vehicle: Klucel (hydroxypropylcellulose) (HPC)) was 97 % of control; the T/C (dose: 12.0 mg/kg/injection, schedule: Q04DX003 (ip), vehicle: Klucel (hydroxypropylcellulose) (HPC)) is 107 % of control; the T/C under setting [9] was 96 % of control.
As to `O=NN(CCCl)C(=O)Nc1cccc2cccnc12`, the T/C runs as follows: (dose: 0.62 mg/kg/injection, schedule: Q01DX001 (ip), vehicle: carboxymethylcellulose (CMC)) 112 % of control; (dose: 1.25 mg/kg/injection, schedule: Q01DX001 (ip), vehicle: carboxymethylcellulose (CMC)) 117 % of control; (dose: 2.5 mg/kg/injection, schedule: Q01DX001 (ip), vehicle: carboxymethylcellulose (CMC)) 117 % of control.
For the compound `C=CCN(CC=C)P(=O)(N1CC1)N1CC1C` (centres undefined), the T/C is 117 % of control (dose: 0.37 mg/kg/injection, schedule: Q01DX015 (ip), vehicle: carboxymethylcellulose (CMC)); 90 % of control (dose: 6.0 mg/kg/injection, schedule: Q01DX009 (ip), vehicle: saline); 162 % of control (dose: 10.0 mg/kg/injection, schedule: Q01DX001 (ip), vehicle: saline).
Turning to `COc1ccc([N+](=O)[O-])cc1NS(=O)(=O)c1ccc(Cl)c([N+](=O)[O-])c1`, the T/C (dose: 50.0 mg/kg/injection, schedule: Q01DX009 (ip), vehicle: saline with Tween-80) is 95 % of control and 90 % of control; the T/C (dose: 50.0 mg/kg/injection, schedule: Q04DX003 (ip), vehicle: other) is 97 % of control; the T/C (dose: 100.0 mg/kg/injection, schedule: Q01DX009 (ip), vehicle: other) is 105 % of control; the T/C (dose: 100.0 mg/kg/injection, schedule: Q01DX009 (ip), vehicle: saline with Tween-80) is 93 % of control and 106 % of control; the T/C (dose: 100.0 mg/kg/injection, schedule: Q04DX002 (ip), vehicle: other) is 107 % of control and 113 % of control; the T/C (dose: 100.0 mg/kg/injection, schedule: Q04DX003 (ip), vehicle: other) was 96 % of control. Moreover, the T/C (dose: 200.0 mg/kg/injection, schedule: Q01DX009 (ip), vehicle: saline with Tween-80) was 95 % of control; the T/C (dose: 200.0 mg/kg/injection, schedule: Q04DX002 (ip), vehicle: other) is 96 % of control and 102 % of control; the T/C (dose: 200.0 mg/kg/injection, schedule: Q04DX003 (ip), vehicle: other) is 89 % of control; the T/C (dose: 400.0 mg/kg/injection, schedule: Q01DX009 (ip), vehicle: other) was 87 % of control; the T/C (dose: 400.0 mg/kg/injection, schedule: Q01DX009 (ip), vehicle: saline with Tween-80) was 95 % of control; the T/C (dose: 400.0 mg/kg/injection, schedule: Q04DX002 (ip), vehicle: other) was 101 % of control and 102 % of control.
